These results are taken from the NIST ThermoML archive (doi:10.1016/j.tca.2015.10.001).

The conditions of series [1]: Crystal; DTA.
A short description of series [2]: Molar enthalpy of transition or fusion. The conditions noted are these: Crystal; DSC.

SMILES strings stand for the structures. Numbers after ± are expanded uncertainties.

Take `CCCCCCCCCCCCCCCCCC` [octadecane]: the Normal melting temperature in series [1] was 28.40 ± 4 °C. Further, the “Molar enthalpy of transition or fusion” value in series [2] stood at 13.8 ± 0.86 kcal/mol.
